# T1: GlyR α-subunit (hGlyRa1) (Homo sapiens, UniProt P23415)
# T1 construct: P2A-mEYFP (C); host or cells: HEK-293
# T1 sequence (P23415 29-457): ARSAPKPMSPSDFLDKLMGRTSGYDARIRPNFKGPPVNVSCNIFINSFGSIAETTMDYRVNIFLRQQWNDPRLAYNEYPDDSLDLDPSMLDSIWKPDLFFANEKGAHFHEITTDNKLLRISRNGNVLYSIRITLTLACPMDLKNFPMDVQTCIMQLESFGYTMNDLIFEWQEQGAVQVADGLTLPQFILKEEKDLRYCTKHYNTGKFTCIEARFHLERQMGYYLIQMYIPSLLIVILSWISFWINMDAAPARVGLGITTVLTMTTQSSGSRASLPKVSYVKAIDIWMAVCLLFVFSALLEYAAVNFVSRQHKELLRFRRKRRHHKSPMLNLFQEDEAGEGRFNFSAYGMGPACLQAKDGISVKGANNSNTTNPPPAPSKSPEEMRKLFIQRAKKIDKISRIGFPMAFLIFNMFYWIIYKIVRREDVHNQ
# B1: hGlyRa1 (protein, listed as Homo sapiens)
# chain: MYSFNTLRLYLWETIVFFSLAASKEAEAARSAPKPMSPSDFLDKLMGRTSGYDARIRPNFKGPPVNVSCNIFINSFGSIAETTMDYRVNIFLRQQWNDPRLAYNEYPDDSLDLDPSMLDSIWKPDLFFANEKGAHFHEITTDNKLLRISRNGNVLYSIRITLTLACPMDLKNFPMDVQTCIMQLESFGYTMNDLIFEWQEQGAVQVADGLTLPQFILKEEKDLRYCTKHYNTGKFTCIEARFHLERQMGYYLIQMYIPSLLIVILSWISFWINMDAAPARVGLGITTVLTMTTQSSGSRASLPKVSYVKAIDIWMAVCLLFVFSALLEYAAVNFVSRQHKELLRFRRKRRHHKSPMLNLFQEDEAGEGRFNFSAYGMGPACLQAKDGISVKGANNSNTTNPPPAPSKSPEEMRKLFIQRAKKIDKISRIGFPMAFLIFNMFYWIIYKIVRREDVHNQ
# B2: wild-type GluCl α-subunit: fluorescently tagged Caenorhabditis elegans GluCl α-subunit, wild type, expressed from plasmid (protein, UniProt G5EBR3 21-461, looked up)
# Glutamate-gated chloride …: QQARTKSQDIFEDDNDNGTTTLESLARLTSPIHIPIEQPQTSDSKILAHLFTSGYDFRVRPPTDNGGPVVVSVNMLLRTISKIDVVNMEYSAQLTLRESWIDKRLSYGVKGDGQPDFVILTVGHQIWMPDTFFPNEKQAYKHTIDKPNVLIRIHNDGTVLYSVRISLVLSCPMYLQYYPMDVQQCSIDLASYAYTTKDIEYLWKEHSPLQLKVGLSSSLPSFQLTNTSTTYCTSVTNTGIYSCLRTTIQLKREFSFYLLQLYIPSCMLVIVSWVSFWFDRTAIPARVTLGVTTLLTMTAQSAGINSQLPPVSYIKAIDVWIGACMTFIFCALLEFALVNHIANKQGVERKARTEREKAEIPLLQNLHNDVPTKVFNQEEKVRTVPLNRRQMNSFLNLLETKTEWNDISKRVDLISRALFPVLFFVFNILYWSRFGQQNVLF
# How the values were obtained:
# [1] = test system: SNI model of neuropathic pain in the rat; assay: Spared nerve injury (SNI) model of neuropathic pain, von Frey withdrawal threshold (Example 5); format: in vivo; settings: for withdrawal threshold / reduction of the allodynic response: Control vector animals
# Excerpt: Under isoflurane anesthesia the skin on the lateral surface of the thigh was incised and a section made directly through the biceps femoris muscle exposing the sciatic nerve and its three terminal branches: the sural, common peroneal and tibial nerves. The SNI procedure comprised an axotomy and ligation of the tibial and common peroneal nerves leaving the sural nerve intact. The common peroneal and the tibial nerves were tight-ligated with 5.0 silk and sectioned distal to the ligation, removing 2±4 mm of the distal nerve stump. Great care was taken to avoid any contact with or stretching of the intact sural nerve. Muscle and skin were closed in two layers (Decosterd I. and Woolf C. (2000) Pain 87(2):149-158). In the current study this was considered as Day 0.
# Testing was performed during the day portion of the circadian cycle only (06:00-18:00 h). Rats were placed in an inverted plastic cage on an elevated wire mesh platform which allowed full access to the paws. Behavioral accommodation was allowed for approximately 15 min, until cage exploration and major grooming activities ceased. The area tested was the lateral region of the plantar left hind paw, in the sural nerve distribution, avoiding the less sensitive tori (footpads). The paw was touched with 1 of a series of 8 von Frey filaments with logarithmically incremental stiffness (0.41, 0.70, 1.20, 2.00, 3.63, 5.50, 8.50, and 15.10 g) (Stoelting). The von Frey filament was presented perpendicular to the plantar surface with sufficient force to cause slight buckling against the paw, and held for approximately 6-8 s. Stimuli were presented at intervals of several seconds, allowing for apparent resolution of any behavioral responses to previous stimuli. A positive response was noted if the paw was sharply withdrawn. Flinching immediately upon removal of the hair was also considered a positive response. Ambulation was considered an ambiguous response, and in such cases the stimulus was repeated. Based on observations on normal, un-operated rats, the cut-off of a 15.10 g filament (˜10% of the body weight of the smaller rats) was selected as the upper limit for testing, since stiffer filaments tended to raise the entire limb rather than to buckle, substantially changing the nature of the stimulus (Chaplan S. et al. (1994) J Neurosci Methods 53(1): 55-63).
# One day prior to the surgery (Day −1) animals were tested for their baseline response to mechanical stimulation (mechanical sensitivity). At 10 days post-surgery all animals were re-tested for their mechanical sensitivity.
# At days 13, 22 and 35 post-treatment (days 23, 32 and 45 post-surgery) animals were re-evaluated for their mechanical sensitivity. For all of these measurements the operator was blinded as to the identity of the animals.
# At day 36 post-treatment (day 46 post-surgery) the animals were dosed with gabapentin (100 mg/kg: IP). At 1 hour and 2 hours post-gabapentin administration the animals were evaluated for their sensitivity to mechanical stimulation.
# The 50% withdrawal threshold was determined using the up-down method of Dixon (Chaplan S. et al. (1994) J Neurosci Methods 53(1):55-63; Dixon W J. (1980) Ann. Rev. Pharmacol. Toxicol. 20:441-462). In this paradigm, testing was initiated with the 2.0 g filament, in the middle of the series. Stimuli were always presented in a consecutive fashion, whether ascending or descending. In the absence of a paw withdrawal response to the initially selected filament, a stronger stimulus was presented; in the event of paw withdrawal, the next weaker stimulus was chosen. According to Dixon, optimal threshold calculation by this method requires 6 responses in the immediate vicinity of the 50% threshold. Since the threshold is not known, strings of similar responses may be generated as the threshold is approached from either direction.
# [2] = target: T1, GlyR α-subunit (hGlyRa1); assay: FLIPR membrane potential assay in HEK-293 cells expressing hGlyRa1; format: cell-based
# Protocol: For FlexStation assays, HEK-293 cells were plated at 20,000 cells/well, with a plating volume of 100 μl/well, in a black-sided/clear-bottomed 96-well imaging plate (BD Falcon #353219). For transfection, […] in 750 μl Opti-MEM (Gibco 31985-070) was mixed with 30 μl ExpressFect in 750 μl Opti-MEM, pre-incubated for 20 minutes, and then added at 15 μl/well to cells containing 100 μl fresh culture media. Cells were transfected 24 hours after plating and assayed 48 hours after transfection.
# A fluorescence-based assay employing the FLIPR Membrane Potential Assay Kit, BLUE formulation, (Molecular Devices, #R8042) was used to detect voltage changes across the cell membrane. Dye loading buffer was prepared according to package literature. Specifically, the contents of one vial of BLUE reagent was dissolved with 5 ml of 1×Assay Buffer, followed by a wash of the vial with another 5 ml of 1× Assay Buffer, to yield a total volume of 10 ml of dye loading buffer. Unused portions of dye loading buffer were stored at −20° C. and used within 5 days. […] Cells were then loaded with 50 μl of Blue dye loading buffer and incubated for 40 min at 37° C./5% CO2. The signal was detected using the FlexStation 3 multimode benchtop microplate reader operated by SoftMax Pro Data Acquisition & Analysis Software (Molecular Devices). Excitation and emission wavelengths were set at 530 nm and 565 nm, respectively, with an emission cut-off of 550 nm. Plate reads were performed at 30° C. with a ‘Low PMT’ setting. […] Other FlexStation parameters included a pipette height of 130 an initial well volume of 100 μl, a transfer volume of 50 μl (therefore, drug concentrations were prepared 3×), and a transfer rate setting of 2, corresponding to ˜31 μl/sec.
# [3] = test system: GlyR; settings: read-out: EC50 for gating of GlyR; cited from earlier work
# [4] = in vivo; cited from earlier work
# [5] = target: T2, L9′A mutated GluCl α-subunit (GluCl*) (Caenorhabditis elegans, UniProt G5EBR3, L315A); format: cell-based; settings: increasing doses of ivermectin, cells expressing GluCl*
# T2 construct: expressed in transfected cells; host or cells: HEK-293
# [6] = test system: wild-type α-subunit of the GluCl glutamate receptor; assay: FLIPR membrane potential assay in HEK-293 cells expressing wild-type GluCl α-subunit; format: cell-based, Caenorhabditis elegans
# Protocol: Cells were transfected 24 hours after plating and assayed 48 hours after transfection.
# A fluorescence-based assay employing the FLIPR Membrane Potential Assay Kit, BLUE formulation, (Molecular Devices, #R8042) was used to detect voltage changes across the cell membrane. Dye loading buffer was prepared according to package literature. Specifically, the contents of one vial of BLUE reagent was dissolved with 5 ml of 1× Assay Buffer, followed by a wash of the vial with another 5 ml of 1× Assay Buffer, to yield a total volume of 10 ml of dye loading buffer. Unused portions of dye loading buffer were stored at −20° C. and used within 5 days. For the functional assay, culture medium was removed from the cells and replaced with 50 DMEM. Cells were then loaded with 50 μl of Blue dye loading buffer and incubated for 40 min at 37° C./5% CO2. The signal was detected using the FlexStation 3 multimode benchtop microplate reader operated by SoftMax Pro Data Acquisition & Analysis Software (Molecular Devices). Excitation and emission wavelengths were set at 530 nm and 565 nm, respectively, with an emission cut-off of 550 nm. Plate reads were performed at 30° C. with a ‘Low PMT’ setting. Run times, of which the first 20 s measured basal fluorescence, were 300 s for ivermectin-induced signals. […]
# [7] = test system: Human airway smooth muscle (HASM) cells; assay: Histamine-induced increase in intracellular Ca++ (Fluo 8); format: cell-based
# Protocol: Human airway smooth muscle (HASM) cells were derived from tracheas obtained from the National Disease Research Interchange (Philadelphia, Pa., USA) and from the International Institute for the Advancement of Medicine (Edison, N.J., USA). The cells were cultured in Ham's F-12 medium supplemented with 10% FBS, 100 U mL^−1 penicillin, 0.1 mg mL^−1 streptomycin and 2.5 mg mL^−1 amphotericin B, and this medium was replaced every 72 h. HASM cells in subculture during passages 1-5 were used, because these cells retain the expression of native contractile protein. The HASM cells were derived from healthy normal donors.
# Cells were serum starved for 24 hr and loaded with Fluo 8 calcium sensing dye for 1 hr prior to stimulation with histamine. […] All data from both studies is expressed as relative fluorescent units.
# [8] = test system: HEK-293 cells; format: cell-based, human; settings: 48 hours post-transfection
# Protocol: […]. […] […]. […] Five separate wells were evaluated for each condition (un-transfected, mock-transfected, GluCl and GluCl*).
# T2 sequence (G5EBR3 21-461 L315A): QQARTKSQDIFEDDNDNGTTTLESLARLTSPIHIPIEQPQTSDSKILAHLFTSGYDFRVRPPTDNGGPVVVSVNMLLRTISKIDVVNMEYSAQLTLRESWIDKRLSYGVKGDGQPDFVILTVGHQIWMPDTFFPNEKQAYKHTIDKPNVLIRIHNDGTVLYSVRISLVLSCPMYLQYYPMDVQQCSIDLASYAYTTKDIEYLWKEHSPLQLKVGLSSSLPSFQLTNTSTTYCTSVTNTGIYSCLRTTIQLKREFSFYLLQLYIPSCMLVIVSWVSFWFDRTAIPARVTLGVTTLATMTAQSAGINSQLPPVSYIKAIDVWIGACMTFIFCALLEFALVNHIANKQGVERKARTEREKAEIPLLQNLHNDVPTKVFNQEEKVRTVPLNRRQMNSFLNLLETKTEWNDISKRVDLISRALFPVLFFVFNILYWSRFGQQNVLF
molecule,measurement,setting,value
NCC1(CC(=O)O)CCCCC1 [Gabapentin],withdrawal threshold,"[1]; 1 hour post dose, 100 mg/kg IP",3.44 ± 0.36 g
same,reduction of the allodynic response,"[1]; 1 hour post-dose, 100 mg/kg IP",25%
same,withdrawal threshold,"[1]; 2 hours post dose, 100 mg/kg IP",4.15 ± 0.19 g
same,reduction of the allodynic response,"[1]; 2 hours post-dose, 100 mg/kg IP",44%
same,withdrawal threshold,"[1]; pre-dose, day 46 post-surgery",2.46 ± 0.49 g
same,effect on response to mechanical stimulation in animals previously treated with GTX-01*,"[1]; rat, in vivo",no effect
NCC(=O)O [Glycine],EC100 of change in membrane potential,[2]; HEK-293 cells expressing hGlyRa1,approximately 300 μM
same,EC50,[3],~100 µM
same,half-life in the body,[4],26 to 245 min
NCCS(=O)(=O)O [Taurine],effect on membrane potential,"[2]; taurine 1 μM to 1 mM, monomeric hGlyRa1 channel",no direct effect
Ivermectin,effect of ivermectin on change in membrane potential,[5],did not augment the change in membrane potential
same,EC50,"[6]; HEK-293 cells expressing wild-type GluCl α-subunit alone, 4.5 minutes post addition, read-out: EC50 of change in membrane potential",0.147 µM
B1,unstimulated change in membrane potential,[2],no unstimulated change in membrane potential
same,effect on histamine-induced increase in intracellular Ca,[7],antagonized
B2,cell viability,[8],91.8%
same,unstimulated change in membrane potential,"[6]; no agonist, monomeric expression in HEK-293",no unstimulated change in membrane potential
